Reference: ChEMBL document CHEMBL2375350, “Synthesis of indolyl-3-acetonitrile derivatives and their inhibitory effects on nitric oxide and PGE2 productions in LPS-induced RAW 264.7 cells” (Bioorg Med Chem Lett, 2013)

How the values were obtained:
RAW264.7 [1] = test: Antiinflammatory activity in mouse RAW264.7 cells assessed as inhibition of LPS-induced PGE2 production incubated for 1 hr prior to LPS challenge measured after 24 hrs by EIA; assay type: functional, cell-based
RAW264.7 [2] = test: Cytotoxicity against mouse RAW264.7 cells assessed as cell viability after 24 hrs by MTT assay; assay type: cell-based; settings: RAW264.7, 24 h
RAW264.7 [3] = test: Antiinflammatory activity in mouse RAW264.7 cells assessed as inhibition of LPS-induced nitrite production after 24 hrs by Griess assay; assay type: functional, cell-based; settings: RAW264.7, 24 h

Row | IC50 (RAW264.7 [1]) [µM] | IC50 (RAW264.7 [3]) [µM] | Compound | IC50 (RAW264.7 [2]) [µM]
1 | 83.6 | > 100 | COc1ccc2c(CC#N)c[nH]c2c1 | 161
2 | > 25 | 19.4 | N#CCc1c[nH]c2ccc(OCc3ccccc3)cc12 | 82.7
3 | 32.4 | 45.6 | N#CCc1c[nH]c2cccc(OCc3ccccc3)c12 | 105
4 | > 100 | > 100 | COC(=O)Cn1cc(CC#N)c2ccc(O)cc21 | > 400
5 | 13.9 | 83.6 | COc1cccc2[nH]cc(CC#N)c12 [ARVELEXIN] | 207
6 | 11.7 | 80.1 | Cn1cc(CC#N)c2ccc(O)cc21 | 372
7 | > 100 | > 100 | COc1cccc2c(CC#N)c[nH]c12 | > 400
8 | 41.3 | 82.1 | CC(=O)n1cc(CC#N)c2ccc(O)cc21 | > 400
9 | 6.22 | 39.8 | Cn1cc(CC#N)c2cccc(O)c21 | > 400
10 | 16 | 57.1 | Cn1cc(CC#N)c2c(O)cccc21 | > 400
11 | 73.1 | 48.7 | N#CCc1c[nH]c2c(OCc3ccccc3)cccc12 | > 400
12 | 15.2 | > 100 | COC(=O)n1cc(CC#N)c2ccc(O)cc21 | 339
13 | > 100 | > 100 | COc1ccc2[nH]cc(CC#N)c2c1 | 99.6
14 | > 25 | 20.4 | N#CCc1c[nH]c2cc(OCc3ccccc3)ccc12 | 53.2
15 | 57.7 | > 100 | Cn1cc(CC#N)c2cc(O)ccc21 | 325
